Target: mTOR (human) (Homo sapiens (Human), UniProt P42345)
Assay: mTOR (human) radiometric kinase assay
Assay type: biochemical
Conditions: IC50 (ATM) at least 2000 times higher compared with IC50 (mTOR)
Description: mTOR (human) was incubated with 50 mM HEPES pH 7.5, 1 mM EGTA, 0.01% Tween 20, 2 mg/ml of the substrate, 3 mM MnCl2 and [γ-^33P-ATP] (specific activity approximately 500 cpm/pmol, concentration as necessary). The reaction was initiated by addition of MgATP solution. After incubation at room temperature for 40 minutes, the reaction was stopped by addition of 3% phosphoric acid. 10 μl of the reaction solution were then transferred dropwise onto a P30 filtermat and washed three times for 5 min in 75 mM phosphoric acid and once in methanol, dried and evaluated by means of liquid scintillation counting.

Structure (SMILES)	ratio IC50 (ATM):IC50(mTOR), selectivity with respect to mTOR
COc1cnc(-n2c(=O)n(C)c3cnc4cc(OC)c(-c5c[nH]nc5C)cc4c32)c(F)c1 [compound 122, 1-(3-Fluoro-5-methoxy-pyridin-2-yl)-7-methoxy-3-methyl-8-(3-methyl-1H-pyrazol-4-yl)-1,3-dihydro-imidazo[4,5-c]quinolin-2-one]	at least 2000 times
CCc1cncc(F)c1-n1c(=O)n(C)c2cnc3cc(OC)c(-c4cn[nH]n4)cc3c21 [compound 125, 1-(3-Ethyl-5-fluoropyridin-4-yl)-7-methoxy-3-methyl-8-(2H-1,2,3-triazol-4-yl)-1,3-dihydroimidazo[4,5-c] quinolin-2-one]	at least 2000 times
CCc1cncc(F)c1-n1c(=O)n(C)c2cnc3cc(OC)c(-c4cn(C)nn4)cc3c21 [compound 126, 1-(3-Ethyl-5-fluoropyridin-4-yl)-7-methoxy-3-methyl-8-(1-methyl-1H-1,2,3-triazol-4-yl)-1,3-dihydroimidazo-[4,5-c]quinolin-2-one]	at least 2000 times
COc1cc2ncc3c(c2cc1-c1ccc2nc(C)[nH]c2c1)n(-c1c(F)cncc1OC)c(=O)n3C [compound 136, 1-(3-Fluoro-5-methoxy-pyridin-4-yl)-7-methoxy-3-methyl-8-(2-methyl-3H-benzoimidazol-5-yl)-1,3-dihydroimidazo[4,5-c]-quinolin-2-one]	at least 2000 times

Second part, the compound after the results:

ratio IC50 (ATM):IC50(mTOR), selectivity with respect to mTOR	Structure (SMILES)
at least 2000 times	CNC(=O)c1cnc(-n2c(=O)n(C)c3cnc4cc(OC)c(-c5cnn(C)c5)cc4c32)c(F)c1 [compound 138, 5-Fluoro-6-[7-methoxy-3-methyl-8-(1-methyl-1H-pyrazol-4-yl)-2-oxo-2,3-dihydroimidazo[4,5-c]-quinolin-1-yl]-N-methyl-nicotinamid]
at least 2000 times	COc1cc2ncc3c(c2cc1-c1cnn(C)c1)n(-c1cn(C)nc1F)c(=O)n3C [compound 141, 1-(3-Fluoro-1-methyl-1H-pyrazol-4-yl)-7-methoxy-3-methyl-8-(1-methyl-1H-pyrazol-4-yl)-1,3-dihydro-imidazo[4,5-c]quinolin-2-one]
at least 2000 times	COc1cc2ncc3c(c2cc1-c1cn(C)nc1C)n(-c1c(F)cncc1OC(F)F)c(=O)n3C [compound 147, 1-(3-Difluoromethoxy-5-fluoropyridin-4-yl)-8-(1,3-dimethyl-1H-pyrazol-4-yl)-7-methoxy-3-methyl-1,3-dihydroimidazo[4,5-c]-quinolin-2-one]
at least 2000 times	CCc1cnccc1-n1c(=O)n(C)c2cnc3cc(OC)c(-c4cnn(CC)c4)cc3c21 [compound 157, 8-(1-Ethyl-1H-pyrazol-4-yl)-1-(3-ethylpyridin-4-yl)-7-methoxy-3-methyl-1,3-dihydroimidazo[4,5-c] quinolin-2-one]
at least 2000 times	COc1ccc(-c2cc3c(cc2OC)ncc2c3n(-c3cn(C)nc3F)c(=O)n2C)cn1 [compound 159, 1-(3-Fluoro-1-methyl-1H-pyrazol-4-yl)-7-methoxy-8-(6-methoxypyridin-3-yl)-3-methyl-1,3-dihydroimidazo-[4,5-c]quinolin-2-one]
at least 2000 times	COc1cc2ncc3c(c2cc1-c1cnn(C)c1)n(-c1ncc(OCS(C)(=O)=O)cc1F)c(=O)n3C [compound 201, 1-(3-Fluoro-5-methyl-sulfonylmethoxypyridin-2-yl)-7-methoxy-3-methyl-8-(1-methyl-1H-pyrazol-4-yl)-1,3-dihydroimidazo[4,5-c]-quinolin-2-one]

— patent publication US10745399B2 (priority 2015, dated 2020)
